From patent US6613322B2, “Method for treating a subject suffering from conditions associated with an extracellular zinc sphingomyelinase” (The Trustees of Columbia University in the City of New York, priority 1997, dated 2003)

Biological target: T1, S-SMase (Mus musculus, UniProt Q04519)
T1 construct: endogenous in cells; host or cells: J774.A1 macrophages, serum-free conditioned medium
T1 sequence (Q04519 45-627): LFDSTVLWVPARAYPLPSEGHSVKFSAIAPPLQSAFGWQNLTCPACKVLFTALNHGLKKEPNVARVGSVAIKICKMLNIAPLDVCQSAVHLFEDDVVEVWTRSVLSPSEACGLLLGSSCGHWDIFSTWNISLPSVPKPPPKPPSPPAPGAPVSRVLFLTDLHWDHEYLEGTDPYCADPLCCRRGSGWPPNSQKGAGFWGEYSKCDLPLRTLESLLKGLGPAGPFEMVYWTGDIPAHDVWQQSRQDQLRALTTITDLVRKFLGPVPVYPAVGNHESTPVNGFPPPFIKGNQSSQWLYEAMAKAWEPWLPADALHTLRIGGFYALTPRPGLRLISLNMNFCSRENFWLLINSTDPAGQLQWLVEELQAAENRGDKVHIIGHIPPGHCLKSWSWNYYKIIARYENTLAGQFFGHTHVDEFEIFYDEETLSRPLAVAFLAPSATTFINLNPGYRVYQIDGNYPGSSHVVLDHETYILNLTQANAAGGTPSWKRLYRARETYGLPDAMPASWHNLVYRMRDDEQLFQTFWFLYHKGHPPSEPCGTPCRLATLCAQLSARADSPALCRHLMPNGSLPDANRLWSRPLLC
Assay: SMase assay of conditioned medium from J774 macrophages (SM micelles, pH 5.0)
Type: biochemical
Conditions: 0.1 mM ZnCl2 versus 5 mM EDTA
Procedure: FIGS. 14A-B. Sequential chelation and addition of Zn^2+ to secreted and intracellular SMase. Serum-free conditioned medium and a cell homogenate from J774 macrophages were prepared as described in “Experimental Procedures”. FIG. 14A, conditioned medium (CM) was assayed for SMase activity using 250 nM [^3H]sphingomyelin in Triton X-100 micelles in the presence of either 5 mM EDTA (first bar) or 0.1 mM ZnCl2 (second bar) for 1 h at 37° C. at pH 5.0. An aliquot of the Zn-activated conditioned medium was then incubated for 18 h in the presence of 10 mM EDTA, 10 mM 1,10-phenanthroline, and 0.6% Triton X-100 at 4° C. (EDTA PHNANTH) and then assayed for SMase activity (third bar). After chelation, a portion of this partially inactivated conditioned medium was then dialyzed against zinc-containing buffer C (150 mM NaCl, 10 mM Tris-HCl, 1 mM ZnCl2, 0.6% Triton X-100, pH 7.4) for 18 h and then assayed for SMase activity (fourth bar). FIG. 14B, an aliquot of cell homogenate (Cell Homgn) was assayed for SMase activity in the presence of assay buffer alone (first bar), 5 mM EDTA (second bar), or 0.1 mM ZnCl2 (third bar). Another aliquot of cell homogenate was incubated for 8 h in the presence of 10 mM EDTA, 10 mm 1,10-phenanthroline, and 0.6% Triton X-100 (EDTA PHNANTH) at 4° C. and then assayed for SMase activity (fourth bar). An aliquot of this chelator-treated cell homogenate was then dialyzed against zinc-containing buffer C for 18 h and then assayed for SMase activity (fifth bar).
SMase Assay—As previously described (Schissel et al., 1996), the standard 200-μl assay mixture consisted of up to 40 μl of sample (conditioned media or homogenized cells; see above) and a volume of assay buffer (0.1 M sodium acetate, pH 5.0) to bring the volume to 160 μl. […] The ceramide spots were scraped and directly counted to quantify [^3H]ceramide. Typically, the assay reactions contained approximately 20 μg of cellular homogenate protein and a volume of conditioned media derived from a quantity of cells equivalent to approximately 50 μg of cellular protein.

Structure (SMILES): [Cl-].[Cl-].[Zn+2] [Zn^2+, ZnCl2]
- activation of S-SMase: markedly activated
